According to patent US20100130736A1, “METHODS OF CREATING AN INDEX” (priority 2008, published 2010):

Assays:
Assay type in all cases: cell-based, human
A549 cells = assay: Epic label-free DMR two-step assay, antagonist mode: modulation of marker-induced DMR signals in A549 cells; conditions: 10 μM, score scaled from percent modulation (10% = 1)
Method: (§1) Cells were typically grown using ˜1 to 2×10^4 cells per well at passage 3 to 15 suspended in 50 μl of the corresponding culture medium in the biosensor microplate, and were cultured at 37° C. under air/5% CO2 for ˜1 day. Except for A431, which was subject to ˜20 hr starvation through continuous culture in the serum-free DMEM, the other cell types were directly assayed without starvation. The confluency for all cells at the time of assays was ˜95% to 100%.
(§2) Epic® wavelength interrogation system (Corning Inc., Corning, N.Y.) was used for whole cell sensing. This system consists of a temperature-control unit, an optical detection unit, and an on-board liquid handling unit with robotics. The detection unit is centered on integrated fiber optics, and enables kinetic measures of cellular responses with a time interval of ±15 sec.
(§3) For biosensor cellular assays, molecule solutions were made by diluting the stored concentrated solutions with the HBSS (1× Hanks balanced salt solution, plus 20 mM Hepes, pH 7.1), and transferred into a 384 well polypropylene molecule storage plate to prepare a molecule source plate. Both molecule and marker source plates were made separately when a two-step assay was performed. In parallel, the cells were washed twice with the HBSS and maintained in 30 μl of the HBSS to prepare a cell assay plate. Both the cell assay plate and the molecule and marker source plate(s) were then incubated in the hotel of the reader system. After ˜1 hr of incubation the baseline wavelengths of all biosensors in the cell assay microplate were recorded and normalized to zero. Afterwards, a 2 to 10 minute continuous recording was carried out to establish a baseline, and to ensure that the cells reached a steady state. Cellular responses were then triggered by pipetting 10 μl of the marker solutions into the cell assay plate using the on-board liquid handler.
To study the influence of molecules on a marker-induced response, a second stimulation with the marker at a fixed dose (typically at EC80 or EC100) was applied. The resonant wavelengths of all biosensors in the microplate were normalized again to establish a second baseline, right before the second stimulation. The two stimulations were usually separated by ˜1 hr. All studies were carried out at a controlled temperature (28° C.). At least two independent sets of experiments, each with at least three replicates, were performed.
A second panel of markers was contacted with A549 cells at concentrations close to each of the marker's EC80 or EC100, and DMR measurements were obtained with and EPIC® system. This panel included poly(I:C), SLIGKV-amide, pinacidil, PMA, histamine, and forskolin. Each of these markers also leads to a wide array of cell signaling. Using Epic® cellular assays in conjunction with chemical biology and cell biology approach similar to the EGFR DMR mentioned above, we have determined the pathway(s) and network interaction(s) that is accounted for each marker-induced DMR signal in A549 cells. The main observations are summarized below. Poly(I:C) is an agonist for endogenous Toll-like receptor(s) in A549, whose activation leads to IKK pathway and AKT pathway. SLIGKV-amide is an agonist for endogenous protease activated receptor subtype 2 (PAR2) in A549, whose activation leads to Gq-, Gi- and G12/13-mediated signaling. Pinacidil is an opener for endogenous ATP-sensitive potassium (KATP) ion channel in A549, whose activation leads to Rho- and JAK-mediated signaling. PMA is an activator for protein kinase C (PKC), whose activation leads to PKC pathway and degranulation. Histamine is a natural agonist for endogenous histamine receptors (dominantly H1R, and possibly H3R), whose activation leads to dual signaling, possibly through Gq and Gi mediated signaling in A549. Forskolin is an activator for adenylyl cyclases, whose activation leads to cAMP-PKA pathway in A549. […] Each DMR signal represents an averaged response of 4 replicates. […]

quiescent A431 cells [1] = assay: Epic label-free DMR two-step assay, antagonist mode: modulation of marker-induced DMR signals in quiescent A431 cells
Method: as §1, §2, §3
To study the influence of molecules on a marker-induced response, a second stimulation with the marker at a fixed dose (typically at EC80 or EC100) was applied. The resonant wavelengths of all biosensors in the microplate were normalized again to establish a second baseline, right before the second stimulation. The two stimulations were usually separated by ˜1 hr. All studies were carried out at a controlled temperature (28° C.). At least two independent sets of experiments, each with at least three replicates, were performed. […]
A first panel of markers was contacted with quiescent A431 cells at concentrations close to each of the marker's EC80 or EC100, and DMR measurements were obtained with and EPIC® system. This panel of markers was selected from a library of markers identified in A431 cells using Epic® cellular assays. This panel included epidermal growth factor (EGF), epinephrine, nicotinic acid, and histamine. Each of these markers leads to a wide array of cell signaling. […] Each DMR signal represents an averaged response of 4 replicates.

quiescent A431 cells [2] = assay: Epic DMR agonist mode (primary profile) in quiescent A431 cells
Description: as §2, §3
A DMR index was generated for four ligand molecules. Quiescent A431 and proliferating A549 cells were separately exposed to the ligand molecules for about 1 hr to generate their primary profiles, followed by stimulation with each marker at a fixed concentration (as mentioned in FIGS. 7 and 8) for another 1 hr or so to generate secondary profiles of the molecule against the panels of markers in both types of cells. Next, one or more specific DMR parameters were chosen as a readout for plotting the DMR index of the molecule. For the pinacidil DMR response in A549, the amplitude of the N-DMR (i.e., the amplitude 30 min after stimulation) was chosen. […]

[3] = A431, ~1 hr pretreatment with the molecule
[4] = quiescent A431, 10 μM, score scaled from percent modulation (10% = 1)

| Compound | modulation index score, PMA (A549 cells) | modulation index score, SLIGKV-amide (A549 cells) | modulation index score, forskolin (A549 cells) | modulation index score, histamine (early P-DMR) (A549 cells) | modulation index score, histamine (late P-DMR) (A549 cells) | modulation index score, pinacidil (A549 cells) | modulation index score, poly(I:C) (A549 cells) | effect on the epinephrine response (in words) (quiescent A431 cells [1]; [3]) | effect on the histamine response (in words) (quiescent A431 cells [1]; [3]) | modulation index score, EGF (N-DMR) (quiescent A431 cells [1]; [4]) | modulation index score, EGF (P-DMR) (quiescent A431 cells [1]; [4]) | modulation index score, epinephrine (quiescent A431 cells [1]; [4]) | modulation index score, histamine (quiescent A431 cells [1]; [4]) | modulation index score, nicotinic acid (quiescent A431 cells [1]; [4]) | EC80 to trigger the DMR signal (quiescent A431 cells [2]; fully quiescent A431 cells) [nM] | DMR signal triggered (quiescent A431 cells [2]; fully quiescent A431 cells, EGF ~32 nM, three phases P-DMR, N-DMR, RP-DMR, FIG. 4) | DMR response as a function of dose (quiescent A431 cells [2]; quiescent A431 cells, data not shown) |
| --- | --- | --- | --- | --- | --- | --- | --- | --- | --- | --- | --- | --- | --- | --- | --- | --- | --- |
| CNCCNS(=O)(=O)c1cccc2cnccc12 [H-8] | 2.2 | 3.2 | 2 | 3.8 | 6.5 | −7.2 | 1.8 | less effective at attenuating | less effective at attenuating | −2 | 0.3 | −1.6 | 1.6 | 1 |  |  |  |
| EGF: natural agonist for endogenous EGF receptor in A431 |  |  |  |  |  |  |  |  |  |  |  |  |  |  | ~32 | distinct and robust DMR signal | dose-dependent response |
